In assay [1] the test system is bFGF induced corneal neovascularization. Kind of assay: Rabbit cornea angiogenesis assay. It is filed as in vivo. As to the method:
Pellets for implantation into rabbit corneas were made by mixing 110 μl of saline containing 12 μg of recombinant bFGF (Takeda Pharmaceuticals-Japan) with 40 mg of sucralfate (Bukh Meditec-Denmark); this suspension was added to 80 μl of 12% hydron (Interferon Sciences) in ethanol. 10 μl aliquots of this mixture was then pipetted onto Teflon pegs and allowed to dry producing approximately 17 pellets. A pellet was implanted into corneal micropockets of each eye of an anesthetized female New Zealand white rabbit, 2 mm from the limbus followed by topical application of erythromycin ointment onto the surface of the cornea. The animals were fed daily from 2 days post-implantation by gastric lavage with either drug suspended in 0.5% carboxymethyl cellulose or 0.5% carboxymethyl cellulose alone. Thalidomide was purchased from Andrulus Pharmaceutical (Maryland) and the EM-12 and Supidimide were kindly provided by Grunenthal GMBH (Germany). The animals were examined with a slit lamp every other day in a masked manner by the same corneal specialist. The area of corneal neovascularization was determined by measuring with a reticule the vessel length (L) from the limbus and the number of clock hours (C) of limbus involved. A formula was used to determine the area of a circular band segment: C/12*3.1416 [r^2−(r−L)^2] where r=6 mm the measured radius of the rabbit cornea.
Pellets containing bFGF and sucralfate were implanted into micropockets of both corneas of rabbits according to Example II. Vessel ingrowth into clear cornea from the limbus was first noted on day 2 and treatments (200 mg/kg orally) were begun on this day. The area of corneal neovascularization was measured from day 4 through day 12. Day 8 measurements were used for comparison between groups. […] Statistical analysis was performed with ANOVA with ranked data to account for interexperimental variation and to guard against a non-normal distribution of data (i.e. outliers) by utilizing a nonparametric method.

Assay [2] relates to chick embryo chorioallantoic membrane. The assay can be described thus: Chick embryo chorioallantoic membrane (CAM) assay. It counts as in vivo. The note with it: examined 48 hours after implantation. The text has this: The chick embryo chorioallantoic membrane assay described by Crum et al., Science 230:1375 et seq. […] See also, U.S. Pat. No. 5,001,116, hereby incorporated by reference, which describes the CAM assay at col. 7 of the patent. Briefly, fertilized chick embryos were removed from their shell on day 3 or 4, and a methylcellulose disc containing the compound was implanted on the chorioallantoic membrane.

SMILES strings stand for the structures.

Results on 1 molecule are retold here after patent US8039488B2, “Methods and compositions for inhibition of angiogenesis” (Children's Medical Center Corporation, priority 1996, dated 2011).

For `O=C(O)CCC(C(=O)O)N1C(=O)c2ccccc2C1=O` (racemic) [Phthaloyl glutamic acid, N-phthaloyl-DL-glutamic acid], the “inhibition of angiogenesis in the rabbit cornea assay” value in assay [1] (200 mg/kg) came out at 29%. Further, the “inhibitory activity on corneal neovascularization, in words” value in assay [1] (200 mg/kg orally) is “weaker inhibitory effects than thalidomide”. Also, the “CAM assay result (avascular zone around the methylcellulose disc)” value in assay [2] is given as “avascular zone with a mild scar”.
